Key:
U-251 MG GBM cells = experiment: Morphology of U-251 MG GBM cells after treatment; type: cell-based; conditions: over-expressor of IL-13Rα2, 1 to 20 μM or equimolar concentrations
From the text: (§1) We have designed double-specificity therapeutic delivery systems, which not only specifically recognize cancer cells, but also enable intracellular distribution of anti-cancer agents to their respective sites of action, like the cytosol, mitochondria and/or nucleus. Some cationic peptides lyse negatively charged mitochondrial membranes of a eukaryotic cell, leading to initiation of caspase-3 dependent cell death. We have chosen one such peptide, (KLAKLAK)2 [SEQ ID NO:1, KK] to target the mitochondria of glioblastoma multiforme (GBM) brain tumor cells. To target GBM cells, we exploited interleukin 13 receptor alpha 2 (IL-13Rα2), an IL-13 plasma membrane receptor which is over-expressed in 75% of GBM patients. To enable intracytosolic delivery of the KK peptide mediated first by the IL-13Rα2, we use Pseudomonas exotoxin A (PE) domain II [D2] based delivery vector. D2 of PE is responsible for the processing and translocation of the internalized toxin and any other protein/agent fused to its C-terminal end from the endosome to the cytosol. Thus, we have generated single chain fusion proteins composed of IL-13, D2 and KK: IL-13.D2 and IL-13.D2.KK, respectively. These proteins were expressed in BL21 (λDE3) E. coli under the bacteriophage T7 promoter control and were further processed and purified by the FPLC system to >95% purity. […]

U-87 MG GBM cells = experiment: Morphology of U-87 MG GBM cells after treatment; type: cell-based; conditions: over-expressor of IL-13Rα2, 1 to 20 μM or equimolar concentrations
From the text: as §1

## (KLAKLAK)2 (KLAKLAKKLAKLAK; Amphipathic antimicrobial peptide sequence) [KK peptide]
U-251 MG GBM cells
  effect on cell morphology: did not have any measurable effect
U-87 MG GBM cells
  effect on cell morphology: did not have any measurable effect
